Experimental data reported in paper PMC6054150, “Cytokinin perception in potato: new features of canonical players” (Journal of Experimental Botany, 2018).
Where “and” joins values, the source holds several entries; their conditions need not be identical. Identical values can stand only once. Like-named read-outs stand apart in the source and are kept apart here.

Legend:
[1] = target: StHK4a (Solanum tuberosum, UniProt A0A2U9K790); assay: Plant membrane (tobacco microsome) hormone binding assay with [3H]trans-zeatin, StHK4a
Text: (§1) The transient transformation of tobacco (Nicotiana benthamiana Domin) leaves was accomplished according to [Sparkes et al. (2006)]. Eight-week-old tobacco plants were infiltrated with a mixture of Agrobacterium tumefaciens carrying CK receptor genes fused to green fluorescent protein (GFP) and the A. tumefaciens helper strain p19 ([Voinnet et al., 2003]), and the expression of receptor genes was checked after 5–6 d with a fluorescence microscope, Axio Imager Z2 (Carl Zeiss Microscopy GmbH), before leaves were processed further for microsome isolation.
(§2) All manipulations were done at 4 °C. Tobacco leaves 6 d after infiltration were homogenized in buffer (3 ml per 1 g of fresh weight) containing 100 mM Tris–HCl (pH 8.0), 2 mM Na2-EDTA, 50 mM KCl, 1 mM DTT, and 1 mM phenylmethylsulfonyl fluoride. The homogenate was filtered through Miracloth (Calbiochem, San Diego, CA, USA), and the filtrate was centrifuged for 5 min at 5000 g. Then supernatant was centrifuged for 40 min at 15000 g. The microsome pellet was resuspended in 50 mM KCl–10% glycerol and the microsome suspension was stored at −70 °C.
(§3) Ligand binding studies were performed in PBS as described previously ([Romanov et al., 2005]; [Lomin et al., 2015]). Studies of pH influence on hormone binding were performed in 50 mM MES–KOH (pH 5–7) or Tris–HCl (pH 7–9) buffers with 50 mM KCl. Kd for [^3H]trans-zeatin (tZ) binding to different receptors was determined in saturation assays followed by data analysis in Scatchard plots.
(§4) To analyse ligand-binding properties of the receptors, a recently developed plant membrane assay system ([Lomin et al., 2015]) was used. Predicted potato CK receptor genes were cloned into pB7FWG2 vectors for transient expression in tobacco leaves. […] Instead of full-length receptor, we clond a genomic sequence of the StHK3a sensory module flanked by transmembrane domains. From the transiently transformed tobacco leaves, a microsomal fraction enriched with individual potato receptors was obtained. The binding assays were conducted using this fraction and tritium-labeled CK. In aggregate, we tested four putative receptors belonging to all three clades: StHK2a, StHK3a (sensory module, further designated as StHK3aSM), StHK4a, and StHK4b.
(§5) First, we determined the pH-dependence of hormone binding to these receptors within the pH range of 5–9 (Fig. 5).
(§6) The interaction of a hormone with a receptor is characterized by the equilibrium dissociation constant (Kd) of the ligand–receptor complex. Kd values were determined by the dose-dependent binding of labeled trans-zeatin to StHKs, and the results were processed by the Scatchard method (Supplementary Fig. S7; [Lomin and Romanov, 2008]).
(§7) Different CKs are usually present in the plant: trans- and cis-zeatins (tZ and cZ), isopentenyladenine (iP), and dihydrozeatin (DZ). In addition to natural CKs, there are many synthetic ones. […] We studied the ligand specificity of putative receptors in competitive experiments where binding of labeled CK was carried out in the presence of various concentrations of certain unlabeled ligands. Based on the obtained competition curves (Supplementary Fig. S8), the apparent Kd values were determined for each ligand as described ([Lomin and Romanov, 2008]). We analysed the interaction of StHKs with six CKs, including five natural ones as well as the synthetic urea-type CK thidiazuron (Table 3).

[2] = target: StHK4b (Solanum tuberosum, UniProt A0A2U9K786); assay: Plant membrane (tobacco microsome) hormone binding assay with [3H]trans-zeatin, StHK4b
Text: as §1, §2, §3, §4, §5, §6, §7

[3] = target: StHK2a (Solanum tuberosum, UniProt A0A2P1D005); assay: Plant membrane (tobacco microsome) hormone binding assay with [3H]trans-zeatin, StHK2a
Text: as §1, §2, §3, §4, §5, §6, §7

[4] = target: StHK3aSM (Solanum tuberosum, UniProt A0A2U9K793); assay: Plant membrane (tobacco microsome) hormone binding assay with [3H]trans-zeatin, StHK3a sensory module
Text: as §1, §2, §3, §4, §5, §6, §7

[5] = test system: StHK4 expression; assay: qRT-PCR of CK receptor gene expression after BA treatment of potato plants; type: in vivo, Solanum tuberosum; conditions: leaves; 1.5% sucrose; 1 μM BA, 1 h; on average
Method: (§8) Potato cv. Désirée plants were cultivated under standard in vitro conditions at a long (16 h) day for 5–6 weeks on liquid MS medium containing 1.5% or 5% sucrose. For hormone treatment, the medium was replaced with the same one supplemented with N^6-benzyladenine (BA, 1 μM). Tubes were inverted several times to assure uniform plant wetting and then incubated for 1 h under standard conditions. Finally, plant organs (leaves, stems, roots, tubers) were isolated and immediately frozen in liquid nitrogen. Control plants were treated in the same way but without hormone. Total RNA was isolated by the Trizol method ([Brenner et al., 2005]), and served as the template for cDNA synthesis by reverse transcription (Invitrogen). All RNA samples were treated with RNase-free DNase I. The resulting cDNA was checked for genomic DNA contamination by PCR with primers differentiating cDNA and genomic DNA. The band derived from genomic DNA was absent in the separating gel. Expression of genes encoding predicted proteins of the CK signaling system was determined by qRT-PCR. Potato housekeeping genes StEF1α (elongation factor 1-α, AB061263) and StCYC (cyclophilin, AF126551) were used as reference genes ([Nicot et al., 2005]). […]
At 1.5% sucrose, the up-regulation (on average, 2.5-fold) of StHK4 expression was regularly recorded, but only in leaves (Fig. 8). […]

[6] = test system: StRR-A genes; assay: qRT-PCR of type A response regulator gene expression after BA treatment of potato plants; type: in vivo, Solanum tuberosum; conditions: 1 μM BA, 1 h; 1.5% sucrose
Method: as §8
To validate the results of CK treatment experiments, the effect of CK administration on the transcript level of the genes of type A response regulator (RR-A) genes was analysed. […]

[7] = target: StHKs (StHK2a, StHK3aSM, StHK4a, StHK4b); assay: Competitive binding, summary over the analysed StHKs; set-up: species or system Solanum tuberosum; conditions: span over StHK2a, read-out: apparent Kd, all analysed StHKs
Method: as §3
as §4, with “In aggregate, we tested four putative receptors belonging to all three clades: StHK2a, StHK3a (sensory module, further designated as StHK3aSM), StHK4a, and StHK4b.” left out
Different CKs are usually present in the plant: trans- and cis-zeatins (tZ and cZ), isopentenyladenine (iP), and dihydrozeatin (DZ). […] Based on the obtained competition curves (Supplementary Fig. S8), the apparent Kd values were determined for each ligand as described ([Lomin and Romanov, 2008]). We analysed the interaction of StHKs with six CKs, including five natural ones as well as the synthetic urea-type CK thidiazuron (Table 3).

[8] = competition with labeled trans-zeatin (tZ value from saturation/Scatchard), mean ± SE, read-out: Apparent Kd StHK4a
[9] = competition with labeled trans-zeatin (tZ value from saturation/Scatchard), mean ± SE, read-out: Apparent Kd StHK4b
[10] = competition with labeled trans-zeatin (tZ value from saturation/Scatchard); mean ± SE; read-out: Apparent Kd StHK2a
[11] = sensory module, competition with labeled trans-zeatin (tZ value from saturation/Scatchard), mean ± SE, read-out: Apparent Kd StHK3a SM

Chain of StHK4a (A0A2U9K790 entry or part of it): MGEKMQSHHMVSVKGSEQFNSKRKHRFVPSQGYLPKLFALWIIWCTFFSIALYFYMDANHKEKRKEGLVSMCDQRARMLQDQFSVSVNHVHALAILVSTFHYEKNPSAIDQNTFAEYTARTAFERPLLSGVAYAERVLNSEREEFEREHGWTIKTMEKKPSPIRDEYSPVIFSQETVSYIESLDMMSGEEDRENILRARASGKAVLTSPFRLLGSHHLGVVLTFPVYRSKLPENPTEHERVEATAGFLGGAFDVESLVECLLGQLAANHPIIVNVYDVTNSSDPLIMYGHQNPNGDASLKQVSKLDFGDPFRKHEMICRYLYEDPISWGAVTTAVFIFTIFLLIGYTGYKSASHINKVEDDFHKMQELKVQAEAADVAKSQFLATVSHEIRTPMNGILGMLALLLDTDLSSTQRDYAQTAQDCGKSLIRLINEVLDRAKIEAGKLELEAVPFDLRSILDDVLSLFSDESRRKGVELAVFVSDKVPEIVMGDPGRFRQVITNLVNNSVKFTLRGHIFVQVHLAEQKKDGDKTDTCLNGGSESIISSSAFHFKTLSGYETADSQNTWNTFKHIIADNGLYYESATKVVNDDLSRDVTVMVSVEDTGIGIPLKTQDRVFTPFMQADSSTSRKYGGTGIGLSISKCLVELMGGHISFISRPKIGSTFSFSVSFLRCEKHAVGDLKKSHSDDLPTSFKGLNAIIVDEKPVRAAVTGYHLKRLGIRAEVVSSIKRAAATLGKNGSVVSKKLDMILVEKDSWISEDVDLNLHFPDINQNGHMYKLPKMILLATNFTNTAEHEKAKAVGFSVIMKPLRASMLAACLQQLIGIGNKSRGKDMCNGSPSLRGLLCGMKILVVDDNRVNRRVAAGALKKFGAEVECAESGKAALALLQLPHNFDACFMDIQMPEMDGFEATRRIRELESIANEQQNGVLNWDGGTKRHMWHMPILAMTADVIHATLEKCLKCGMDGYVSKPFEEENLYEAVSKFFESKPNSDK
Chain of StHK2a (A0A2P1D005 entry or part of it): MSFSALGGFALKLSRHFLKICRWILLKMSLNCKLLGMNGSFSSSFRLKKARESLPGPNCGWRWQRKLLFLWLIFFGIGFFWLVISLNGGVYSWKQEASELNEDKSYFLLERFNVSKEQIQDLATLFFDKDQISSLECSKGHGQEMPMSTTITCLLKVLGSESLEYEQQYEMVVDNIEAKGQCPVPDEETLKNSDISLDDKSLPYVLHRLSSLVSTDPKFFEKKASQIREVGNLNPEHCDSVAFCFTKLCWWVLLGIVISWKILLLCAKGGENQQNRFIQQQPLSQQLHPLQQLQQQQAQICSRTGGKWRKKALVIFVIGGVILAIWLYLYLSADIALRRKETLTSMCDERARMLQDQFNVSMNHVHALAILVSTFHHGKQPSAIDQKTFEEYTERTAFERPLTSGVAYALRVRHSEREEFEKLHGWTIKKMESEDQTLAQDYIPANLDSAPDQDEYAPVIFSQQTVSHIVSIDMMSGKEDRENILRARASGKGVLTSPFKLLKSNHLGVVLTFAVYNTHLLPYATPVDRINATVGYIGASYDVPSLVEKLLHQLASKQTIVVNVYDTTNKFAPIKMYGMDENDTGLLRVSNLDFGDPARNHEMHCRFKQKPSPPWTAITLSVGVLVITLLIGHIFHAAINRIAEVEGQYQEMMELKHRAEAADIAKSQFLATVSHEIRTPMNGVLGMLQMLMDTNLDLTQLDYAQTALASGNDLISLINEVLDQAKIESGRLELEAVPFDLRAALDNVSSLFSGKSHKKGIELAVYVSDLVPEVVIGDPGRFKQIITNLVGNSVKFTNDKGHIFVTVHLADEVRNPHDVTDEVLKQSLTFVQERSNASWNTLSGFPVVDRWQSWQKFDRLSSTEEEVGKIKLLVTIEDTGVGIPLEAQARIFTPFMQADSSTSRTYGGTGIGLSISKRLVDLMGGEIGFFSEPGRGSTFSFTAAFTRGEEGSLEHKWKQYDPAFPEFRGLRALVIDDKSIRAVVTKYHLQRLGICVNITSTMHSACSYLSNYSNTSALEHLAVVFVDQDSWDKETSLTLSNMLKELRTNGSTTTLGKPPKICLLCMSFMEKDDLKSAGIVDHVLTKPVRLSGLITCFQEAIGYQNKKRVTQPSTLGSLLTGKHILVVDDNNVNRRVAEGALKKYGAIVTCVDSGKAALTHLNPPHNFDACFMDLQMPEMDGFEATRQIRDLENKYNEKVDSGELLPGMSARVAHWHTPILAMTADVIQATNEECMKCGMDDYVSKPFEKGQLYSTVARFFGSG
Chain of StHK4b (A0A2U9K786 entry or part of it): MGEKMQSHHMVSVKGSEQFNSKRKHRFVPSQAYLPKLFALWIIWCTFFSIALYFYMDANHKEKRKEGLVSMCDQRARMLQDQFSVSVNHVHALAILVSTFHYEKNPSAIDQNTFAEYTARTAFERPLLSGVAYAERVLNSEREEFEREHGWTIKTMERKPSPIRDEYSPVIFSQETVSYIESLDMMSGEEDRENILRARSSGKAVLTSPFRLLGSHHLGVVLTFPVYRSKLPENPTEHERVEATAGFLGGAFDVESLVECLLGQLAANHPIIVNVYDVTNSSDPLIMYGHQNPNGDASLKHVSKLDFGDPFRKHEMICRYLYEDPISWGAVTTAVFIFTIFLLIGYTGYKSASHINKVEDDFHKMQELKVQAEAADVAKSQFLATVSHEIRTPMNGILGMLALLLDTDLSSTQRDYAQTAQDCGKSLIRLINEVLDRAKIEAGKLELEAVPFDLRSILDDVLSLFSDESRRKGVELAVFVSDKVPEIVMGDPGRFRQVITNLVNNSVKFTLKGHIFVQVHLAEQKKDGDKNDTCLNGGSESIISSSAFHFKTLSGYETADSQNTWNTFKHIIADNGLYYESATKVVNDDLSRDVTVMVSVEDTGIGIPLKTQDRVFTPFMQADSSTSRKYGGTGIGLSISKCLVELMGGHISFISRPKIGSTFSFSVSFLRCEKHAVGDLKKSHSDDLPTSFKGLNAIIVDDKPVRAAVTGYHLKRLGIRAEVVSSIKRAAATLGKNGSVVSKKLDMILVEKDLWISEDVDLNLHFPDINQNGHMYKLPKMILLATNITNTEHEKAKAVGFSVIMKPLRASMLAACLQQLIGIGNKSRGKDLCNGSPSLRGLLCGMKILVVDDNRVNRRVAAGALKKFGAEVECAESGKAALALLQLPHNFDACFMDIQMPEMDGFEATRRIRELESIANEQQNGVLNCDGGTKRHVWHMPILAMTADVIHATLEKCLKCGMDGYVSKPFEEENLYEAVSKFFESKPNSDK
Chain of StHK3aSM (A0A2U9K793 entry or part of it): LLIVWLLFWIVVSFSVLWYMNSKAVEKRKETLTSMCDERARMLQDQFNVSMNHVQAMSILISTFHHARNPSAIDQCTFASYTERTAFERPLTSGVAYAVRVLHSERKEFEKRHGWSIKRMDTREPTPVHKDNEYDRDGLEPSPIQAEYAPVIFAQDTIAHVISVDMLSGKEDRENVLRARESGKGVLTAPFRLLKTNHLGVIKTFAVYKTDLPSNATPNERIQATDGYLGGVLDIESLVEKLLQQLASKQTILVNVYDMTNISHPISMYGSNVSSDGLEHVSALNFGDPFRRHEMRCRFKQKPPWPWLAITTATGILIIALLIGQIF

## CC(CO)CCNc1ncnc2nc[nH]c12 (stereo not drawn) [Dihydrozeatin]
[1]; [8]
  Kd: 178 ± 37 nM
[2]; [9]
  Kd: 227 ± 33 nM
[3]; [10]
  Kd: 169 ± 18 nM
[4]; [11]
  Kd: ~21 nM and 21 nM

## c1ccc(CNc2ncnc3nc[nH]c23)cc1 [N ^6-Benzyladenine]
[1]
  Kd: 55 ± 7 nM
[2]
  Kd: 63 ± 12 nM
[3]; read-out: Apparent Kd StHK2a; competition with labeled trans-zeatin (tZ value from saturation/Scatchard); mean ± SE
  Kd: 45 ± 3.5 nM
[4]; Apparent Kd StHK3a SM, sensory module, competition with labeled trans-zeatin (tZ value from saturation/Scatchard), mean ± SE
  Kd: 49 ± 7 nM
[5]
  up-regulation of StHK4 expression (BA/control): 2.5 fold
[6]
  expression of StRR-A genes: rapid and reliable increase

## CC(C)=CCNc1ncnc2nc[nH]c12 [N ^6-Isopentenyladenine]
[1]; [8]
  Kd: 2.1 ± 0.2 nM
[2]; [9]
  Kd: 2.5 ± 0.3 nM
[3]; [10]
  Kd: 2.4 ± 0.2 nM
[4]; [11]
  Kd: 5.2 ± 0.8 nM

## O=C(Nc1ccccc1)Nc1cnns1 [Thidiazuron]
[1]; [8]
  Kd: 12.6 ± 1.9 nM
[2]; [9]
  Kd: 17.2 ± 2.5 nM
[3]; [10]
  Kd: 1.4 ± 0.04 nM
[4]; [11]
  Kd: 2.3 ± 0.5 nM

## C/C(=C/CNc1ncnc2nc[nH]c12)CO [cis-Zeatin]
[1]; read-out: Apparent Kd StHK4a
  Kd: 106 ± 22 nM
[7]
  Kd: > 100 nM
[2]; read-out: Apparent Kd StHK4b
  Kd: 129 ± 19 nM
[3]; read-out: Apparent Kd StHK2a
  Kd: 102 ± 7 nM
[4]; read-out: Apparent Kd StHK3a SM
  Kd: 110 ± 39 nM

## C/C(=C\CNc1ncnc2[nH]cnc12)CO [trans-Zeatin]
[1]; [8]
  Kd: 2.5 ± 0.7 nM
[1]; pH 5
  decrease of ligand binding at pH 5, StHK4a: about 3 fold
[2]; [9]
  Kd: 3 ± 0.3 nM
[2]; pH 5
  decrease of ligand binding at pH 5, StHK4b: about 3 fold
[3]
  pH of maximal trans-zeatin binding, StHK2a: 7.5
  reduction of binding at pH 5 (factor), StHK2a: 2
[3]; [10]
  Kd: 2.6 ± 0.3 nM
[4]
  pH of maximal trans-zeatin binding, StHK3aSM: 7
  reduction of binding at pH 5 (factor), StHK3aSM: 5
[4]; [11]
  Kd: 4.7 ± 0.6 nM
